Structures are written as SMILES.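 Assay format: 96-well plates, 48-hour exposure. GI50 = concentration required for 50% inhibition of growth. Definition used: TGI = concentration required for complete inhibition of growth.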

Here are results for two molecules from PubChem BioAssay (NCI).

The subject of the test is MDA-MB-468 breast. Put plainly: NCI tumour cell line growth inhibition, 48 h.

For the molecule `CC[C@]12C=CCN3CC[C@@]4(c5ccc(OC)cc5N(C)[C@H]4[C@@](O)(C(=O)OC)[C@@H]1OC(=O)CCC(=O)N[C@H](Cc1c[nH]c4ccccc14)C(=O)OC)[C@@H]32`, the GI50 is 1640 nM and the TGI was found to be 3140 nM.

As to `O=C(NNC(=S)Nc1ccccc1)c1ccccn1`, the GI50 is 2840 nM and the TGI is 90900 nM.
